Laboratory results as given in US20200063104A1, “EXPANSION OF HPSC-DERIVED GRANULOCYTIC AND LYMPHOID PROGENITORS WITH UM171” (Wisconsin Alumni Research Foundation, priority 2018, published 2020).

Experiments:
[1] = tested on: CD34+CD43+ hPSC-derived HPs; assay: Expansion of hPSC-derived hematopoietic progenitors in HSC expansion conditions (flow cytometry); assay type: cell-based, human
Description: To understand the effect of UM171 on hPSC-derived HPs and provide mechanistic insight on its action, we performed hematopoietic differentiation of H1 hESCs in defined feeder- and serum-free defined conditions for 9 days to generate HPs^10. We then cultured the cells in SFEM medium supplemented with cytokines that support expansion of HSCs (TPO, SCF, FLT3L, IL3 and IL6), and with UM171 or DMSO (negative control) (FIG. 1A). […] Overall, cultures with UM171 generated up to 10-fold higher numbers of CD34^+CD43^+CD45^+ HPs, as compared to control cultures.
Hematopoietic progenitors from Day 9 differentiation cultures were expanded in StemSpan™-SFEM (Stem Cell Technologies), supplemented with 35 nM UM171 (Xcess Biosciences), or equivalent volume of DMSO, and 100 ng/ml TPO, 100 ng/ml SCF, 100 ng/ml FLT3L, 50 ng/ml IL-6, and 10 ng/ml IL-3. Expansion cultures were supplemented with fresh StemSpan™-SFEM (Stem Cell Technologies) media with the same cytokine concentrations, every 3 days. Cells were plated at up to 150,000 cells/ml. At day 5 or indicated time points, cells were collected for flow cytometric (FCM) analysis and CFU assay. […]

[2] = tested on: hPSC-derived HPs (CFC potential); assay: Methylcellulose colony forming assay of expanded HPs; assay type: cell-based, human
Description: Hematopoietic colony forming potential was assessed by combining cells of interest with 1.5 ml serum containing H4436 Methocult (Stem Cell Technologies). Cell suspensions were then transferred to 35-mm dishes and cultured for 12-14 days at 37° C. Hematopoietic colonies were scored according to cellular morphology, and CFC numbers were normalized to the number of cells plated (CFCs/10^4) cells.

[3] = tested on: CD34+CD43+ hPSC-derived HPs; assay: Apoptosis by annexin V assay in HP expansion cultures; assay type: cell-based, human; settings: 5 days of expansion, UM171 vs DMSO
Description: (§1) For apoptosis detection, cells were stained with CD34-FITC, CD45-BV421, and CD43-APC (BD Pharmingen), along with PI and Annexin V-PE (BD Pharmingen), and analyzed by flow cytometry. To assess proliferation of hematopoietic progenitors, using cell proliferation antigen Ki-67, cells were incubated with CD34-PE, CD43-BV421 (BD Pharmingen), and Ghost violet 540 cell viability dye (TONBO Biosciences). Cells were then fixed and permeabilized with 70% ethanol, and stained with Ki67-APC (Miltenyi Biotech), according to the manufacturer protocol, and analyzed by flow cytometry. Cell cycle analysis of total hematopoietic progenitors was carried out using the FITC BrdU flow kit (BD Pharmingen), following manufacturer recommendations. On day four of HP expansion in HSC or lymphoid expansion conditions and on day 3 of NK differentiation cells were labelled with BrdU. […] CD34^+CD43^+CD45^+ and CD34^+CD43^+CD45^+CD41a^+ hematopoietic progenitors, CD34^+CD45^+CD7^+, lymphoid progenitors, or CD45^+CD56^+ NK cells were then analyzed for cell cycle kinetics and proliferation, through BrdU incorporation.

[4] = tested on: CD34+CD43+ hPSC-derived HPs; assay: Proliferation and cell cycle (BrdU assay, Ki67 staining) in HP expansion cultures; assay type: cell-based, human
Description: For apoptosis detection, cells were stained with CD34-FITC, CD45-BV421, and CD43-APC (BD Pharmingen), along with PI and Annexin V-PE (BD Pharmingen), and analyzed by flow cytometry. To assess proliferation of hematopoietic progenitors, using cell proliferation antigen Ki-67, cells were incubated with CD34-PE, CD43-BV421 (BD Pharmingen), and Ghost violet 540 cell viability dye (TONBO Biosciences). Cells were then fixed and permeabilized with 70% ethanol, and stained with Ki67-APC (Miltenyi Biotech), according to the manufacturer protocol, and analyzed by flow cytometry. Cell cycle analysis of total hematopoietic progenitors was carried out using the FITC BrdU flow kit (BD Pharmingen), following manufacturer recommendations. On day four of HP expansion in HSC or lymphoid expansion conditions and on day 3 of NK differentiation cells were labelled with BrdU. After 24 hours, samples were collected and incubated with CD34-PE, CD43-BV421 (BD Pharmingen), and CD45-APC (Miltenyi Biotech); CD34-PE or 34 PerCP, CD45-BV421 (BD Pharmingen), and CD41a-APC (Miltenyi Biotech); CD45-BV421, CD7-PE, and CD34-APC (BD Pharmingen); or CD45-BV421 and CD56-APC (BD Pharmingen), and then counterstained with Ghost violet 540 cell viability dye (TONBO Biosciences). This was followed by fixation, permeabilization, and a 1 hour incubation with DNase at 37° C., to expose incorporated BrdU. After washing, cells were stained first with anti BrdU-FITC, followed by 7AAD, and flow cytometry was performed. CD34^+CD43^+CD45^+ and CD34^+CD43^+CD45^+CD41a^+ hematopoietic progenitors, CD34^+CD45^+CD7^+, lymphoid progenitors, or CD45^+CD56^+ NK cells were then analyzed for cell cycle kinetics and proliferation, through BrdU incorporation.

CD34+CD235+CD41a+ cells = assay: RNAseq analysis of CD34+CD235+CD41a+ cells expanded in HSC expansion conditions; assay type: cell-based, human
Description: To analyze changes in molecular profile induced by UM171, we isolated CD34^+CD235^+CD41a^+ cells on day 9 of differentiation, cultured them in HSC expansion conditions with UM171 or DMSO for 16 hours and 5 days, and then performed RNAseq analysis of expanded cells.
Total RNA was isolated using RNeasy Micro Kit (Qiagen) and subjected to DNase digestion, according to the manufacturer's protocol. Isolated RNAs were used for either quantitative RT-PCR or RNA sequencing. RNA purity and integrity was evaluated by capillary electrophoresis on the Bioanalyzer 2100 (Agilent Technologies, Santa Clara, Calif.). […] Final sample libraries were quantitated with the Life Technologies Qubit fluorometer and sequenced on the Illumina HiSeq 3000 (SY-401-3001). […] Following quality assessment and filtering for adapter molecules and other sequencing artifacts, the sequencing reads were aligned to transcript sequences corresponding to hg19 human genome annotation. Bowtie v 1.1.2 was used allowing two mismatches in a 25 bp seed and excluding reads with more than 200 alignments^25. RSEM v 1.3.0 was used to estimate isoform or gene relative expression levels in units of “transcripts per million” (tpm), as well as posterior mean estimate of the “expected counts” (the non-normalized absolute number of reads assigned by RSEM to each isoform/gene)^26,27. […]

[5] = tested on: hPSC-derived HPs (NK cell production); assay: NK cell differentiation of hPSC-derived HPs on OP9-DLL4; assay type: cell-based, human
Description: To assess the effect of UM171 on NK cell differentiation, we collected HPs from hPSC cultures on day 9 of differentiation, and cultured them on OP9-DLL4, with or without UM171, as shown in FIG. 5A. After 14 days, these cultures generated CD56^+ NK cells that expressed CD94 and CD16, markers of mature NK cells. Although UM171 had no effect on the percentages of NK cells or their phenotype, the absolute numbers of NK cells generated with UM171 were approximately 10-fold higher as compare to DMSO controls (FIG. 5B-D). […] Similar findings were obtained with HPs generated from H9 hESCs and the IISH2i-BM9 iPSC line that was derived from bone marrow mononuclear cells (FIG. 9).
NK differentiation of hematopoietic progenitor cells was performed in α-MEM (Gibco), supplemented with 20% FBS (HyClone), on mouse OP9-DLL4 expressing feeder layer, in two stages. In stage 1, hematopoietic progenitor cells were cultured for 7 days on OP9-DLL4, with 100 ng/ml FLT3L, 40 ng/ml SCF, and 5 ng/ml IL-7 (Peprotech), and 35 nM UM171 or equivalent volume DMSO. Cells were then transferred to fresh α-MEM media, supplemented with 10 ng/ml Il-2 and 5 ng/ml IL-15 (Peprotech), and with or without UM171 treatment. Media was topped up with one volume fresh media, every 3-4 days, and cultures were transferred to new OP9-DLL4 cells, every 7 days. After 14 to 21 days, cells were harvested for flow cytometry and other analyses. OP9-DLL4 were used at 75-80% confluency.

[6] = tested on: CD34+CD45+CD7+ progenitors; assay: BrdU cell cycle analysis in NK differentiation cultures; assay type: cell-based, human; settings: lymphoid stage of NK differentiation
Description: as §1

[7] = tested on: hPSCs (NK cell production); settings: 28-day period, prior studies; cited from earlier work
[8] = 5 days of expansion, UM171 vs DMSO

## Cn1nnc(-c2ccc3c(c2)[nH]c2nc(Cc4ccccc4)nc(NC4CCC(N)CC4)c23)n1 (stereo not shown) [UM171]
[1]; 35 nM UM171 vs DMSO, H1 hESC-derived day 9 HPs, SFEM with TPO, SCF, FLT3L, IL3, IL6
  fold higher numbers of CD34+CD43+CD45+ HPs as compared to control cultures: up to 10 fold
[1]; HSC expansion conditions, 35 nM UM171
  CD201 expression in CD34+CD45+ HPs: induction of CD201 expression
[2]; HPs expanded 5 and 7 days with UM171 vs DMSO
  effect on CFC potential of expanded cells: most dramatic effect on G-CFCs
[2]; UM171 cultures with HSC expansion cytokines
  share of G-CFCs in the CD34+CD41a(lo)CD45+ progenitor population: > 50%
[3]
  number of apoptotic, especially late apoptotic (AnnexinV+PI+) cells: decreased number of apoptotic
  number of viable cells: increased number of viable cells
[4]; [8]
  cell cycle distribution of HPs: predominantly increases the proportion of HPs in the early S phase
  proliferation of HPs by BrdU assay and Ki67 staining: increased proliferation
[4]; UM171 expansion cultures
  proportions of CD41a(lo) and CD41a(hi) cells within BrdU+ fraction: approximately equal proportions
[4]; within BrdU+ fraction, CD34+CD45+ gated, 5 days of expansion
  fold higher frequency of proliferating CD41a(lo) HPs as compared to DMSO control: up to 7 fold
CD34+CD235+CD41a+ cells; UM171 vs DMSO, 16 hours and 5 days
  expression of aryl-hydrocarbon receptor target genes: did not affect
CD34+CD235+CD41a+ cells; hPSC-derived HPs
  AHR and AHRR expression: minimal effect
[5]; 35 nM UM171, after 14 days on OP9-DLL4
  fold higher absolute numbers of NK cells as compared to DMSO controls: approximately 10 fold
[5]; added during first 7 or final 7-14 days
  stage of NK differentiation at which addition has an effect: only when added during the first 7 days
[5]; after 14 days on OP9-DLL4, UM171 vs DMSO
  percentages of NK cells or their phenotype: no effect
[5]; lymphoid cultures on OP9-DLL4 with SCF, FLT3L, IL7, 14-day period
  fold increase in NK cell output: up to 10 fold
[5]; lymphoid cultures on OP9-DLL4 with SCF, Flt-3, IL7
  fold increase in NK and T cell output: up to 10 fold
[6]
  proportion of proliferating CD34+CD45+CD7+ progenitors: increases the proportion of proliferating

## CC(C)n1cnc2c(NCCc3ccc(O)cc3)nc(-c3csc4ccccc34)nc21 [SR1]
[7]
  fold increase in NK cell output: up to 2 fold
